Assay results published in patent US20230172933A1, “USE OF A COMPOUND OR COMPOSITION COMPRISING AN INHIBITOR OF NLRP1 INFLAMMASOME ACTIVATION FOR THE TREATMENT OF HUMAN AIRWAY INFLAMMATION” (Nanyang Technological University, priority 2020, published 2023).
“Also recorded” adds a separate entry of the source. Peptide text beside a SMILES is read from it. * marks the point of attachment. Cbz = O=C(OCc1ccccc1)*

Columns and labels:
[1] = test system: NLRP1 inflammasome in HRV16-infected NHBEs; assay: HRV16-induced IL-1β and IL-18 secretion in NHBEs (ELISA); format: cell-based, human; details: HRV16 MOI=5, 33° C., 48 hours, pre-treated: MLN4924 1 μM, Bortezomib 1 μM, MCC950 5 μM, Rupintrivir 10 nM
Method: (§1) (A) Expression levels of NLRP1 vs. NLRP3 (RNAseq FKPM) in NHBEs. n=21, independent cultures of pooled NHBEs from healthy donors. (B) Expression of NLRP1 vs. NLRP3 in healthy human nasal biopsy. Puncta: positive staining by RNAscope. Nuclei staining: hematoxylin. (C) Overview of cytokine profiling of by HRV16-infected and Talabostat-treated NHBEs. (D) Cells were inoculated with HRV16 at MOI=5 and cultured at 33° C. for 48 hours. Luminex array was performed on conditioned media after removing cell debris. n=3 independent infections and treatment. Cytokines/chemokines that were induced at least 5 fold (p<0.05, Student's t test, lognormal values) are represented by square boxes. […] NHBEs were pretreated with MCC950 (5 μM) or Rupintrivir (10 nM) before HRV16 inoculation or Talabostat (2 μM) treatment. […] (G) Overview of apical HRV infection 3D human bronchial epithelial cultures. (H) Alcian blue (AB)/periodic acid-Schiff (PAS) staining of HRV16-infected (MOI=3) and Talabostat (2 μM)-treated 3D human bronchial epithelial cultures. (1) IL-18 level in apical or basal media 48 hours post-infection or Talabostat treatment. **P<0.01, ***P<0.001, ****P<0.0001 (Two-way ANOVA). n=3 independent infected/treated cultures. (J) Secretion of cleaved IL-1β and IL-18 and ASC oligomerization in HRV16-infected primary NHBEs. Cells were inoculated with HRV16 (MOI=5) or treated with Talabostat (2 μM) for 48 hours at 33° C.
(A) Endogenous NLRP1, ASC and caspase-1 are indispensable for HRV16-induced IL-18 secretion in NHBEs. Cas9-control, NLRP1, ASC and CASP1 KO NHBEs were infected with HRV16 as before. Conditioned media were harvested 48 hours post-infection. (B) NLRP1 is genetically required for HRV16-induced IL-18 cleavage and ASC oligomerization. Cas9 control, NLRP1 and ASC KO NHBEs were infected with HRV16 as before. Cleaved IL-18 are marked with arrows. (C) Mutating the NLRP1 cleavage site abrogates HRV16-triggered IL-18 secretion in NHBEs. NLRP1 KO NHBEs were rescued with lentiviral constructs expressing FLAG-tagged NLRP1^WT or NLRP1^Q130A, which carried silent mutations at the PAM sites. The rescued cells were infected with HRV16 or treated with Talabostat. Conditioned media was analyzed by IL-18 ELISA. **P<0.01, ***P<0.001, n=3 replicates from one of two independent infections. (D) Q130A abrogates NLRP1 cleavage, IL-18 maturation and ASC oligomerization in NHBEs. NLRP1 KO or NLRP1^WT- or NLRP1^Q130A-rescued cells were infected with HRV16 or treated with Talabostat. Cells were harvested 48 hours post infection. Arrow: NLRP1 cleavage product in lane 8 HRV16. *: Non-specific NLRP1 degradation product that occurs right below the a.a. 131-1213 cleavage fragment. See also FIG. 3E, 5E, 5D. (E) MLN4924 and Bortezomib blocks HRV16-induced IL-18 secretion. NHBEs were pre-treated with MLN4924 (1 μM) or Bortezomib (1 μM) before HRV16 infection or Talabostat treatment. IL-18 levels were measured with ELISA. ****, p<0.0001 (Two-way ANOVA), n=3 independent infections/treatment. (F) MLN4924 and Bortezomib blocks HRV16-induced IL-1β secretion. […] Lysates from HRV16-infected NHBEs in FIGS. 9E-F were analyzed by Western blot 48 hours post HRV16 inoculation.
(§2) The following antibodies were used in this study: c-Myc (Santa Cruz Biotechnology #sc-40), HA tag (Santa Cruz Biotechnology, #sc-805), GAPDH (Santa Cruz Biotechnology, #sc-47724), ASC (Adipogen, #AL-177), CASP1 (Santa Cruz Biotechnology, #sc-622), IL1B (R&D systems, #AF-201), FLAG (SigmaAldrich, #F3165), GFP (Abcam, #ab290), NLRP1 (R&D systems, #AF6788), IL18 (Abcam ab207324) and VP2 (QED Bioscience, #18758). HRV16-3Cpro was detected by rabbit serum, a kind gift from Dr. Ann Palmenberg and Dr. James Gern (University of Wisconsin). Cytokine and chemokine measurements were carried out with human IL-1B ELISA kit (BD, #557953), human IL-18 ELISA kit (MBL Bioscience, #7620) and Immune Monitoring 65-Plex Human ProcartaPlex™ Panel (ThermoFisher EPX650-10065-901). […]

[2] = test system: NLRP1 cleavage by HRV16 3Cpro; assay: NLRP1 cleavage in HRV16-infected HeLa-Ohio-NLRP1-HA cells; format: cell-based, human; details: HRV16 MOI=1
Method: (A) HRV16 infection causes NLRP1 cleavage in HeLa-Ohio-NLRP1-HA cells. MOI=1. (B) Q130A abrogates HRV16-induced NLRP1 cleavage and ASC-GFP oligomerization. HeLa-Ohio-ASC-GFP-NLRP1WT or NLRP1^Q130A cells were infected with HRV16 at MOI=1 at 33° C. Cell pellets were harvested 48 hours post infection. (C) The effect of HRV16 infection on ASC-GFP speck formation in HeLa-Ohio-ASC-GFP cells expressing wild-type NLRP1 or NLRP1^Q130A. ***P<0.001 (Two-way ANOVA). n=3 replicates from one of two independent infections, >100 cells per condition. (D) Representative images of ASC-GFP specks in HeLa-Ohio-ASC-GFP cells expressing wild-type NLRP1 or NLRP1^Q130A. Arrows: ASC-GFP specks. Note that in this cell line the ASC-GFP specks appear less compact, even in Talabostat-treated positive control cells. […]
The effect of live HRV infection in disease-relevant human epithelial cell types was then examined. In HeLa-Ohio cells overexpressing NLRP1-HA, robust HRV16 viral replication was achieved 16 hours post inoculation (MOI=1) as detected by the accumulation of the viral capsid protein VP2 (FIG. 8A, lanes 4, 5, 10 and 11). […] Using HeLa-Ohio cells that additionally expressed ASC-GFP, we next tested whether HRV16 infection could lead to NLRP1 inflammasome complex assembly. […]

[3] = test system: endogenous NLRP1 inflammasome; assay: Endogenous NLRP1 inflammasome in doxycycline-induced Tet-ON HRV14-3Cpro N/TERT keratinocytes; format: cell-based, human; details: doxycycline 24 hours; for mature IL-1β secretion upon HRV14-3Cpro induction: Western blot, ELISA
human NLRP1 inflammasome = assay: HRV14-3Cpro-induced ASC-GFP speck formation in 293T-ASC-GFP-NLRP1-FLAG reporter cells; format: cell-based; details: 293T-ASC-GFP-NLRP1-FLAG cells transfected with HRV14-3Cpro; MLN4924 1 μM, MG132 2.5 μM, Bortezomib 0.5 μM, phenylalanine 1 mM; 24 hours
NLRP1 = NLRP1 self-oligomerization (BN-PAGE) and cleavage fragment (SDS-PAGE/Western blot) in 293T-NLRP1-FLAG cells transfected with HRV14-3Cpro; format: cell-based, human; details: for stabilization of the post-cleavage NLRP1 fragment (a.a. 131-1213): 293T-NLRP1-FLAG cells transfected with HRV14-3Cpro, Western blot; for HRV14-3Cpro-induced NLRP1 self-oligomerization: 293T-NLRP1-FLAG cells, BN-PAGE, drugs for 24 hours, MG132 2.5 μM
[4] = test system: NLRP1 inflammasome in Talabostat-treated NHBEs; assay: Talabostat-induced IL-1β and IL-18 secretion in NHBEs (ELISA); format: cell-based, human; details: Talabostat 2 μM, pre-treated: MLN4924 1 μM, MCC950 5 μM, Rupintrivir 10 nM
Method: as §1
(A) Endogenous NLRP1, ASC and caspase-1 are indispensable for HRV16-induced IL-18 secretion in NHBEs. Cas9-control, NLRP1, ASC and CASP1 KO NHBEs were infected with HRV16 as before. Conditioned media were harvested 48 hours post-infection. (B) NLRP1 is genetically required for HRV16-induced IL-18 cleavage and ASC oligomerization. Cas9 control, NLRP1 and ASC KO NHBEs were infected with HRV16 as before. Cleaved IL-18 are marked with arrows. […] Conditioned media was analyzed by IL-18 ELISA. **P<0.01, ***P<0.001, n=3 replicates from one of two independent infections. […] IL-18 levels were measured with ELISA. ****, p<0.0001 (Two-way ANOVA), n=3 independent infections/treatment. […] Lysates from HRV16-infected NHBEs in FIGS. 9E-F were analyzed by Western blot 48 hours post HRV16 inoculation.
as §2, with “Wisconsin).” for “Wisconsin). Cytokine and chemokine measurements were carried out with human IL-1B ELISA kit (BD, #557953), human IL-18 ELISA kit (MBL Bioscience, #7620) and Immune Monitoring 65-Plex Human ProcartaPlex™ Panel (ThermoFisher EPX650-10065-901).”

Row | Structure (SMILES) | HRV16-induced IL-1β secretion [1] | HRV16-induced IL-18 secretion [1] | NLRP1 cleavage [2] | ASC oligomerization upon HRV14-3Cpro induction [3] | mature IL-1β secretion upon HRV14-3Cpro induction [3] | HRV14-3Cpro-induced ASC-GFP speck formation (human NLRP1 inflammasome) | stabilization of the post-cleavage NLRP1 fragment (a.a. 131-1213) (NLRP1) | HRV14-3Cpro-induced NLRP1 self-oligomerization (NLRP1) | Talabostat-induced IL-1β secretion [4] | Talabostat-induced IL-18 secretion [4] | HRV16-induced IL-1β secretion ([1]; listed as bortezomib) | HRV16-induced IL-18 secretion ([1]; listed as bortezomib)
1 | CCOC(=O)/C=C/[C@H](C[C@@H]1CCNC1=O)NC(=O)[C@@H](CC(=O)[C@@H](NC(=O)c1cc(C)on1)C(C)C)Cc1ccc(F)cc1 [Rupintrivir] | completely abrogated | completely abrogated | completely abrogated |  |  |  |  |  |  |  |  | 
2 | CC(C)C[C@@H](C=O)NC(=O)[C@H](CC(C)C)NC(=O)[C@H](CC(C)C)NC(=O)OCc1ccccc1 [MG132, benzyl N-[(2S)-4-methyl-1-[[(2S)-4-methyl-1-[[(2S)-4-methyl-1-oxopentan-2-yl]amino]-1-oxopentan-2-yl]amino]-1-oxopentan-2-yl]carbamate] (Cbz-Leu-Leu-Leu-aldehyde) |  |  |  | completely abrogated | completely abrogated | significantly blocked | to similar degrees | significantly blocked |  |  |  | 
3 | N[C@@H](Cc1ccccc1)C(=O)O [phenylalanine] |  |  |  |  |  | had no effect |  | had no effect |  |  |  | 
4 | CC(C)(O)c1coc(S(=O)(=O)NC(=O)Nc2c3c(cc4c2CCC4)CCC3)c1 [MCC950] | neither IL-1β nor IL-18 secretion was affected; also recorded: did not affect | neither IL-1β nor IL-18 secretion was affected |  |  |  |  |  |  | neither IL-1β nor IL-18 secretion was affected | neither IL-1β nor IL-18 secretion was affected |  | 
5 | CC(C)C[C@H](NC(=O)[C@H](Cc1ccccc1)NC(=O)c1cnccn1)B(O)O [Bortezomib, [(1R)-3-methyl-1-[[(2S)-3-phenyl-2-(pyrazine-2-carbonylamino)propanoyl]amino]butyl]boronic acid] | blocks | blocks |  | completely blocked | completely blocked | blocked | to similar degrees |  |  |  | completely blocked | completely blocked
